From PubChem BioAssay (NCI)
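A five-concentration, 48-hour dose response in 96-well plates underlies each endpoint, interpolated linearly between surrounding concentrations. At the TGI there is no net growth.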

Experiments:
Assay in all cases: NCI anticancer screen, dose series, 48 h
MDA-MB-435 = system: MDA-MB-435
OVCAR-5 ovarian = system: OVCAR-5 ovarian
T-47D breast = system: T-47D breast
UACC-62 melanoma = system: UACC-62 melanoma
SK-MEL-2 melanoma = system: SK-MEL-2 melanoma
HL-60(TB) leukemia = system: HL-60(TB) leukemia
OVCAR-4 ovarian = system: OVCAR-4 ovarian
NCI-H226 lung = system: NCI-H226 lung
MOLT-4 leukemia = system: MOLT-4 leukemia
MALME-3M melanoma = system: MALME-3M melanoma
MCF7 breast = system: MCF7 breast
SNB-19 CNS = system: SNB-19 CNS
RXF 393 renal = system: RXF 393 renal
SF-539 CNS = system: SF-539 CNS
TK-10 renal = system: TK-10 renal
786-0 renal = system: 786-0 renal
RPMI-8226 leukemia = system: RPMI-8226 leukemia
DU-145 prostate = system: DU-145 prostate
K-562 leukemia = system: K-562 leukemia
COLO 205 colon = system: COLO 205 colon
HCT-116 colon = system: HCT-116 colon
PC-3 prostate = system: PC-3 prostate
SF-295 CNS = system: SF-295 CNS
UO-31 renal = system: UO-31 renal
HS 578T breast = system: HS 578T breast
UACC-257 melanoma = system: UACC-257 melanoma
SNB-75 CNS = system: SNB-75 CNS
CAKI-1 renal = system: CAKI-1 renal
HT29 colon = system: HT29 colon
SF-268 CNS = system: SF-268 CNS
NCI-H522 lung = system: NCI-H522 lung
HOP-62 NSCLC = system: HOP-62 NSCLC
M14 melanoma = system: M14 melanoma
LOX IMVI melanoma = system: LOX IMVI melanoma
SK-OV-3 ovarian = system: SK-OV-3 ovarian
IGROV1 ovarian = system: IGROV1 ovarian
MDA-MB-231 breast = system: MDA-MB-231 breast
OVCAR-8 ovarian = system: OVCAR-8 ovarian
NCI-H23 lung = system: NCI-H23 lung
A498 renal = system: A498 renal
SK-MEL-28 melanoma = system: SK-MEL-28 melanoma
NCI-H460 lung = system: NCI-H460 lung
KM12 colon = system: KM12 colon
SK-MEL-5 melanoma = system: SK-MEL-5 melanoma
ACHN renal = system: ACHN renal
HOP-92 NSCLC = system: HOP-92 NSCLC
SW-620 colon = system: SW-620 colon
EKVX NSCLC = system: EKVX NSCLC
BT-549 breast = system: BT-549 breast
HCT-15 colon = system: HCT-15 colon
SN12C renal = system: SN12C renal
A549 NSCLC = system: A549 NSCLC
U251 CNS = system: U251 CNS
HCC-2998 colon = system: HCC-2998 colon
OVCAR-3 ovarian = system: OVCAR-3 ovarian
SR leukemia = system: SR leukemia

Compound `COc1cc2c(/C=C3/C(=O)Nc4ccc(O)cc43)c(Cl)[nH]c2cc1C` has a TGI (MDA-MB-435) of 0.0441 µM, a TGI (OVCAR-5 ovarian) of 30.8 µM and a TGI (T-47D breast) of 7.85 µM. The TGI (UACC-62 melanoma) was 3.08 µM, the TGI (SK-MEL-2 melanoma) was 29.2 µM and the TGI (HL-60(TB) leukemia) was 4.08 µM. It also gave a TGI (OVCAR-4 ovarian) of 3.38 µM, a TGI (NCI-H226 lung) of 3.77 µM and a TGI (MOLT-4 leukemia) of 0.387 µM. For the same compound, the TGI (MALME-3M melanoma) was 1.38 µM, the TGI (MCF7 breast) was greater than 100 µM and the TGI (SNB-19 CNS) was 22.3 µM. It also gave a TGI (RXF 393 renal) of 30.5 µM, a TGI (SF-539 CNS) of 0.185 µM and a TGI (TK-10 renal) of 26.1 µM. It also gave a TGI (786-0 renal) of 16.7 µM, a TGI (RPMI-8226 leukemia) of 1.34 µM and a TGI (DU-145 prostate) of 7.55 µM. For the same compound, the TGI (K-562 leukemia) was 16 µM, the TGI (COLO 205 colon) was 0.894 µM and the TGI (HCT-116 colon) was 6.61 µM. For the same compound, the TGI (PC-3 prostate) was 22.2 µM, the TGI (SF-295 CNS) was 13.5 µM and the TGI (UO-31 renal) was 21.1 µM. The TGI (HS 578T breast) was 28.5 µM, the TGI (UACC-257 melanoma) was 21.9 µM and the TGI (SNB-75 CNS) was 20 µM. The TGI (CAKI-1 renal) was 3.19 µM, the TGI (HT29 colon) was 5.42 µM and the TGI (SF-268 CNS) was 26.4 µM. The TGI (NCI-H522 lung) was 19.5 µM, the TGI (HOP-62 NSCLC) was 4.55 µM and the TGI (M14 melanoma) was 2.02 µM. It also gave a TGI (LOX IMVI melanoma) of 11.9 µM, a TGI (SK-OV-3 ovarian) of 2.48 µM and a TGI (IGROV1 ovarian) of 20.5 µM. For the same compound, the TGI (MDA-MB-231 breast) was 4.25 µM, the TGI (OVCAR-8 ovarian) was 7.77 µM and the TGI (NCI-H23 lung) was 3.78 µM. For the same compound, the TGI (A498 renal) was 24.6 µM, the TGI (SK-MEL-28 melanoma) was 0.0526 µM and the TGI (NCI-H460 lung) was 19.2 µM. It also gave a TGI (KM12 colon) of 5.35 µM, a TGI (SK-MEL-5 melanoma) of 3.29 µM and a TGI (ACHN renal) of 1.64 µM. It also gave a TGI (HOP-92 NSCLC) of 42.6 µM, a TGI (SW-620 colon) of 20 µM and a TGI (EKVX NSCLC) of 26.8 µM. It also gave a TGI (BT-549 breast) of 3.84 µM, a TGI (HCT-15 colon) of 1.17 µM and a TGI (SN12C renal) of 3.06 µM. The TGI (A549 NSCLC) was 32.9 µM and the TGI (U251 CNS) was 2.99 µM.
`O=c1cc(-c2ccccc2)[nH]c2ccc(N3CCCCC3)cc12` gave a TGI (OVCAR-5 ovarian) greater than 100 µM, a TGI (T-47D breast) greater than 100 µM and a TGI (UACC-62 melanoma) greater than 100 µM. The TGI (SK-MEL-2 melanoma) was greater than 100 µM, the TGI (HL-60(TB) leukemia) was less than 0.028 µM and the TGI (OVCAR-4 ovarian) was greater than 100 µM. The TGI (NCI-H226 lung) was 0.0706 µM, the TGI (MOLT-4 leukemia) was greater than 100 µM and the TGI (MALME-3M melanoma) was greater than 100 µM. It also gave a TGI (MCF7 breast) greater than 67.9 µM, a TGI (SNB-19 CNS) greater than 100 µM and a TGI (SF-539 CNS) of 0.549 µM. It also gave a TGI (TK-10 renal) greater than 100 µM, a TGI (786-0 renal) of 43.1 µM and a TGI (RPMI-8226 leukemia) greater than 100 µM. For the same compound, the TGI (DU-145 prostate) was greater than 30.3 µM, the TGI (K-562 leukemia) was greater than 100 µM and the TGI (COLO 205 colon) was greater than 100 µM. The TGI (PC-3 prostate) was greater than 100 µM, the TGI (SF-295 CNS) was 0.0474 µM and the TGI (HS 578T breast) was greater than 100 µM. The TGI (UACC-257 melanoma) was greater than 100 µM, the TGI (CAKI-1 renal) was greater than 100 µM and the TGI (SF-268 CNS) was greater than 53.2 µM. It also gave a TGI (NCI-H522 lung) greater than 100 µM, a TGI (HOP-62 NSCLC) of 47.4 µM and a TGI (M14 melanoma) greater than 100 µM. The TGI (LOX IMVI melanoma) was greater than 100 µM, the TGI (SK-OV-3 ovarian) was greater than 59.7 µM and the TGI (IGROV1 ovarian) was greater than 100 µM. The TGI (MDA-MB-231 breast) was greater than 100 µM, the TGI (OVCAR-8 ovarian) was greater than 44.9 µM and the TGI (NCI-H23 lung) was 6.86 µM. It also gave a TGI (SK-MEL-28 melanoma) greater than 100 µM, a TGI (NCI-H460 lung) greater than 100 µM and a TGI (HCC-2998 colon) greater than 22.5 µM. For the same compound, the TGI (KM12 colon) was 0.0909 µM, the TGI (OVCAR-3 ovarian) was 2.89 µM and the TGI (SK-MEL-5 melanoma) was 4.2 µM. For the same compound, the TGI (ACHN renal) was greater than 100 µM, the TGI (HOP-92 NSCLC) was 53.6 µM and the TGI (SW-620 colon) was greater than 100 µM. It also gave a TGI (EKVX NSCLC) greater than 100 µM, a TGI (SR leukemia) greater than 100 µM and a TGI (BT-549 breast) greater than 100 µM. It also gave a TGI (HCT-15 colon) greater than 100 µM, a TGI (SN12C renal) greater than 100 µM and a TGI (U251 CNS) greater than 45.9 µM.
